From patent US20160108005A1, “TREATMENT OR PREVENTION OF DEPRESSION USING MENTHOL AND/OR ICILIN” (NESTEC S.A., priority 2013, published 2016)

Experiments:
Assay type in all cases: cell-based
[1] = system: Lateral Amygdala glutamatergic neuron (in a mouse brain slice); assay: whole cell, current clamp recordings, 2.5 s square pulse at high depolarization (approximately −30 mV); settings: for inactivation of the sodium fast channels / neuronal firing: square pulse of 2.5 s at high depolarization of membrane potential (approximately −30 mV), relative to control, FIG. 2
Text: A mouse brain slice was used to study the effects of Menthol, Linalool (another transient receptor potential M8 (TRPM8) channel agonist) and Icilin. The amygdaloid complex is located within the medial temporal lobe in neocortex and amygdala. The lateral and basolateral nuclei of the amygdaloid complex receive sensory information from cortical and thalamic structures, process the information, and then transmit the information, either directly or through the basal nucleus, to the central nucleus. For experimental analysis of neuronal activity, synaptic responses from the basolateral complex can be evoked electrically using electrodes, and the action potentials can be measured. […] A square pulse of 2.5 s was applied at high depolarization of membrane potential (approximately −30 mV).

[2] = system: neocortex; assay: action potential threshold in mouse brain slice recordings
Text: (§1) A mouse brain slice was used to study the effects of Menthol, Linalool (another transient receptor potential M8 (TRPM8) channel agonist) and Icilin. The amygdaloid complex is located within the medial temporal lobe in neocortex and amygdala. The lateral and basolateral nuclei of the amygdaloid complex receive sensory information from cortical and thalamic structures, process the information, and then transmit the information, either directly or through the basal nucleus, to the central nucleus. For experimental analysis of neuronal activity, synaptic responses from the basolateral complex can be evoked electrically using electrodes, and the action potentials can be measured.

[3] = system: Lateral Amygdala glutamatergic neuron (in a mouse brain slice); assay: whole cell, current clamp recordings with increasing concentration of gabazine (spontaneous action potential bursts); settings: Menthol 250 μM applied extracellularly 10 minutes previous to and during increasing concentrations of gabazine; FIG. 5 compared to FIG. 3
Text: as §1, with “measured. […] As shown, neurons spontaneously present action potential bursts due to massive presynaptic discharges.” for “measured.”

Row | Compound | inactivation of the sodium fast channels / neuronal firing [1] | action potentials at higher stimulation levels [1] | amount of current required to trigger an action potential [2] | threshold to trigger an action potential [2] | spontaneous action potential bursts [3]
1 | C=CC(C)(O)CCC=C(C)C (stereo not shown) [Linalool] | inactivation of the sodium fast channels happens sooner relative to control |  |  |  | 
2 | CC1CCC(C(C)C)C(O)C1 (stereo not shown) [Menthol] | inactivation of the sodium fast channels happens sooner relative to control | abort action potentials at higher stimulation levels | increase the amount of current required to trigger an action potential | increase the threshold to trigger an action potential | complete absence or a strongly decreased presence of spontaneous bursts
3 | O=C1NC(c2cccc([N+](=O)[O-])c2)=CCN1c1ccccc1O [Icilin] | inactivation of the sodium fast channels happens sooner relative to control | abort action potentials at higher stimulation levels | increase the amount of current required to trigger an action potential | increase the threshold to trigger an action potential | 
